Article PMC5218480 (PLoS ONE, 2017)

Test system: MV-4-11 cells
Experiment: Gene expression microarray analysis (Affymetrix PrimeView) and GSEA
Assay type: cell-based, human
Set-up: RFU PODN (11730768_x_at) / Fold change /veh PODN (11730768_x_at) / RFU LINC00158 (11744669_a_at) / Fold change /veh LINC00158 (11744669_a_at) / RFU DUSP10 (11751237_a_at) / Fold change /veh DUSP10 (11751237_a_at) / RFU ID3 (11757404_x_at) / Fold change /veh ID3 (11757404_x_at) / RFU PLEKHG5 (11737974_s_at) / Fold change /veh PLEKHG5 (11737974_s_at) / RFU LRRC4B (11730491_at) / Fold change /veh LRRC4B (11730491_at) / RFU GIMAP4 (11747438_a_at) / Fold change /veh GIMAP4 (11747438_a_at) / RFU KRT8 (11758183_x_at) / Fold change /veh KRT8 (11758183_x_at) / RFU CNN1 (11734310_a_at) / Fold change /veh CNN1 (11734310_a_at) / RFU VPS37D (11726825_at) / Fold change /veh VPS37D (11726825_at) / RFU C10orf10 (11716522_x_at) / Fold change /veh C10orf10 (11716522_x_at) / RFU KIR2DL2 /// KIR2DL4 /// KIR2DL5A /// KIR2DL5B /// KIR2DS1 /// KIR2DS2 /// KIR2DS3 /// KIR2DS4 /// KIR3DL3 /// KIR3DL3 /// KIR3DS1 (11738374_at) / Fold change /veh KIR2DL2 /// KIR2DL4 /// KIR2DL5A /// KIR2DL5B /// KIR2DS1 /// KIR2DS2 /// KIR2DS3 /// KIR2DS4 /// KIR3DL3 /// KIR3DL3 /// KIR3DS1 (11738374_at) / RFU C1QL1 (11718748_at) / Fold change /veh C1QL1 (11718748_at) / RFU TMPRSS4 (11747572_a_at) / Fold change /veh TMPRSS4 (11747572_a_at) / RFU HAMP (11756126_x_at) / Fold change /veh HAMP (11756126_x_at) / RFU RNFT2 (11725882_a_at) / Fold change /veh RNFT2 (11725882_a_at) / RFU NR4A2 (11747474_a_at) / Fold change /veh NR4A2 (11747474_a_at) / RFU ABCC12 (11746883_a_at) / Fold change /veh ABCC12 (11746883_a_at) / RFU TMEM136 (11760407_x_at) / Fold change /veh TMEM136 (11760407_x_at) / RFU CLDN22 /// WWC2 (11732394_at) / Fold change /veh CLDN22 /// WWC2 (11732394_at) / RFU HLA-DPB1 (11760878_x_at) / Fold change /veh HLA-DPB1 (11760878_x_at) / RFU SPINT1 (11716480_a_at) / Fold change /veh SPINT1 (11716480_a_at) / RFU GAP43 (11754022_s_at) / Fold change /veh GAP43 (11754022_s_at) / RFU A4GNT (11735810_at) / Fold change /veh A4GNT (11735810_at) / RFU PRB3 (11715151_x_at) / Fold change /veh PRB3 (11715151_x_at) / RFU TUBB4B (11761932_at) / Fold change /veh TUBB4B (11761932_at) / RFU CAPN14 (11732068_a_at) / Fold change /veh CAPN14 (11732068_a_at) / RFU TMCC2 (11721928_a_at) / Fold change /veh TMCC2 (11721928_a_at) / RFU IRGQ (11745062_a_at) / Fold change /veh IRGQ (11745062_a_at) / RFU FAM174B (11720279_a_at) / Fold change /veh FAM174B (11720279_a_at) / RFU TMPRSS4 (11748680_a_at) / Fold change /veh TMPRSS4 (11748680_a_at) / RFU FAM212B (11763350_a_at) / Fold change /veh FAM212B (11763350_a_at) / RFU PLEKHG5 (11743358_a_at) / Fold change /veh PLEKHG5 (11743358_a_at) / RFU ZSCAN30 (11745921_a_at) / Fold change /veh ZSCAN30 (11745921_a_at) / RFU CMKLR1 (11741424_a_at) / Fold change /veh CMKLR1 (11741424_a_at) / RFU LOC101060620 /// MAPK8IP1 (11723275_at) / Fold change /veh LOC101060620 /// MAPK8IP1 (11723275_at) / RFU SPTSSB (11747773_x_at) / Fold change /veh SPTSSB (11747773_x_at) / RFU PRSS12 (11739890_at) / Fold change /veh PRSS12 (11739890_at) / RFU BIN1 (11741810_x_at) / Fold change /veh BIN1 (11741810_x_at) / RFU WNT11 (11732464_a_at) / Fold change /veh WNT11 (11732464_a_at) / RFU C10orf10 (11716521_a_at) / Fold change /veh C10orf10 (11716521_a_at) / RFU C5orf56 (11738089_at) / Fold change /veh C5orf56 (11738089_at) / RFU CYB561 (11721691_x_at) / Fold change /veh CYB561 (11721691_x_at) / RFU ANKRD19P (11752326_a_at) / Fold change /veh ANKRD19P (11752326_a_at) / RFU OR2T12 /// OR2T33 /// OR2T8 (11738714_s_at) / Fold change /veh OR2T12 /// OR2T33 /// OR2T8 (11738714_s_at) / RFU VCAN (11748164_a_at) / Fold change /veh VCAN (11748164_a_at) / RFU JSRP1 (11732532_at) / Fold change /veh JSRP1 (11732532_at) / RFU KRTAP10-11 (11738290_x_at) / Fold change /veh KRTAP10-11 (11738290_x_at) / RFU MYO3A (11730013_a_at) / Fold change /veh MYO3A (11730013_a_at) / RFU EBF3 (11725865_a_at) / Fold change /veh EBF3 (11725865_a_at) / RFU CAMK2N1 (11719241_x_at) / Fold change /veh CAMK2N1 (11719241_x_at) / RFU C5orf56 (11738088_a_at) / Fold change /veh C5orf56 (11738088_a_at) / RFU OLFML3 (11715873_a_at) / Fold change /veh OLFML3 (11715873_a_at) / RFU LOC100653217 /// NTM (11731650_a_at) / Fold change /veh LOC100653217 /// NTM (11731650_a_at) / RFU MAPK11 (11762145_a_at) / Fold change /veh MAPK11 (11762145_a_at) / RFU FIZ1 (11724087_x_at) / Fold change /veh FIZ1 (11724087_x_at) / RFU OASL (11726364_x_at) / Fold change /veh OASL (11726364_x_at) / RFU SOX15 (11748057_x_at) / Fold change /veh SOX15 (11748057_x_at) / RFU CD79A (11719716_a_at) / Fold change /veh CD79A (11719716_a_at) / RFU HIST1H1D (11736915_at) / Fold change /veh HIST1H1D (11736915_at) / RFU CASKIN2 (11723855_a_at) / Fold change /veh CASKIN2 (11723855_a_at) / RFU LOC730098 (11760151_x_at) / Fold change /veh LOC730098 (11760151_x_at) / RFU OR4N2 (11742367_at) / Fold change /veh OR4N2 (11742367_at) / RFU PRRT2 (11749266_a_at) / Fold change /veh PRRT2 (11749266_a_at) / RFU SNX32 (11753110_a_at) / Fold change /veh SNX32 (11753110_a_at) / RFU CDHR5 (11726645_a_at) / Fold change /veh CDHR5 (11726645_a_at) / RFU RCAN1 (11760418_a_at) / Fold change /veh RCAN1 (11760418_a_at) / RFU FAM167A (11723789_a_at) / Fold change /veh FAM167A (11723789_a_at) / RFU FAM26E (11764081_at) / Fold change /veh FAM26E (11764081_at) / RFU ISYNA1 (11749810_s_at) / Fold change /veh ISYNA1 (11749810_s_at) / RFU ACY1 (11761880_at) / Fold change /veh ACY1 (11761880_at) / RFU 11764098_at / Fold change /veh 11764098_at / RFU SAMD14 (11745864_x_at) / Fold change /veh SAMD14 (11745864_x_at) / RFU NPB (11741838_a_at) / Fold change /veh NPB (11741838_a_at) / RFU TMPRSS6 (11731388_a_at) / Fold change /veh TMPRSS6 (11731388_a_at) / RFU KRTAP10-2 (11738614_at) / Fold change /veh KRTAP10-2 (11738614_at) / RFU ARHGAP8 /// PRR5-ARHGAP8 (11727945_x_at) / Fold change /veh ARHGAP8 /// PRR5-ARHGAP8 (11727945_x_at) / RFU KRTAP5-7 /// NADSYN1 (11734609_at) / Fold change /veh KRTAP5-7 /// NADSYN1 (11734609_at) / RFU RASL12 (11751679_a_at) / Fold change /veh RASL12 (11751679_a_at) / RFU CDKN2B (11736163_a_at) / Fold change /veh CDKN2B (11736163_a_at) / RFU PRF1 (11729649_at) / Fold change /veh PRF1 (11729649_at) / RFU, ZNF638 /// ZNF638-IT1 / Fold change vs veh, ZNF638 /// ZNF638-IT1 / RFU, PANK3 / Fold change vs veh, PANK3 / RFU, SH3YL1 / Fold change vs veh, SH3YL1 / RFU, ZEB2 / Fold change vs veh, ZEB2 / RFU, NRIP1 / Fold change vs veh, NRIP1 / RFU, PTTG1IP / Fold change vs veh, PTTG1IP / RFU, CAPN2 / Fold change vs veh, CAPN2 / RFU, MED14 / Fold change vs veh, MED14 / RFU, SNORA58 / Fold change vs veh, SNORA58 / RFU, C1orf63 / Fold change vs veh, C1orf63 / RFU, LRRFIP1 / Fold change vs veh, LRRFIP1 / RFU, NDUFAF7 / Fold change vs veh, NDUFAF7 / RFU, SLC12A2 / Fold change vs veh, SLC12A2 / RFU, IBTK / Fold change vs veh, IBTK / RFU, ESF1 / Fold change vs veh, ESF1 / Fold change vs veh, TMEM50B / RFU, TAOK1 / Fold change vs veh, TAOK1 / RFU, ACBD3 / Fold change vs veh, ACBD3 / RFU, TMA16 / Fold change vs veh, TMA16 / RFU, RWDD3 / Fold change vs veh, RWDD3 / RFU, BCAT1 / Fold change vs veh, BCAT1 / RFU, EDEM3 / Fold change vs veh, EDEM3 / RFU, TMEM33 / Fold change vs veh, TMEM33 / RFU, WDR75 / Fold change vs veh, WDR75 / RFU, AHCTF1 / Fold change vs veh, AHCTF1 / RFU, TFRC / Fold change vs veh, TFRC / RFU, ZDHHC17 / Fold change vs veh, ZDHHC17 / RFU, NOM1 / Fold change vs veh, NOM1 / RFU, ARL8B / Fold change vs veh, ARL8B / RFU, ZBTB11 / Fold change vs veh, ZBTB11 / RFU, TAMM41 / Fold change vs veh, TAMM41 / RFU, KIAA1704 /// LOC100996395 / Fold change vs veh, KIAA1704 /// LOC100996395 / RFU, ING1 / Fold change vs veh, ING1 / RFU, TRMT61B / Fold change vs veh, TRMT61B / RFU, FUBP3 / Fold change vs veh, FUBP3 / RFU, TP53 / Fold change vs veh, TP53 / RFU, TNKS2 / Fold change vs veh, TNKS2 / RFU, ZFP14 / Fold change vs veh, ZFP14 / RFU, ACTR2 / Fold change vs veh, ACTR2 / RFU, PPP3R1 / Fold change vs veh, PPP3R1 / RFU, PIK3R1 / Fold change vs veh, PIK3R1 / RFU, HNRNPA1 / Fold change vs veh, HNRNPA1 / RFU, RNF170 / Fold change vs veh, RNF170 / RFU, ZNF28 / Fold change vs veh, ZNF28 / RFU, RNGTT / Fold change vs veh, RNGTT / RFU, OGT / Fold change vs veh, OGT / RFU, BRD1 / Fold change vs veh, BRD1 / RFU, MARS / Fold change vs veh, MARS / RFU, ZNF655 / Fold change vs veh, ZNF655 / RFU, FAHD1 / Fold change vs veh, FAHD1 / RFU, BDP1 / Fold change vs veh, BDP1 / RFU, LRRCC1 / Fold change vs veh, LRRCC1 / RFU, ARID1A / Fold change vs veh, ARID1A / RFU, ZNF146 / Fold change vs veh, ZNF146 / RFU, ZNF330 / Fold change vs veh, ZNF330 / RFU, GPN3 / Fold change vs veh, GPN3 / RFU, C9orf123 / Fold change vs veh, C9orf123 / RFU, N4BP2L2 / Fold change vs veh, N4BP2L2 / RFU, ARFIP1 / Fold change vs veh, ARFIP1 / RFU, FAM179B / Fold change vs veh, FAM179B / RFU, BCL10 / Fold change vs veh, BCL10 / RFU, UHRF1BP1L / Fold change vs veh, UHRF1BP1L / RFU, BET1 / Fold change vs veh, BET1 / RFU, CNOT2 / Fold change vs veh, CNOT2 / RFU, ZNF268 / Fold change vs veh, ZNF268 / Fold change vs veh, ZNF507 / RFU, DGCR2 / Fold change vs veh, DGCR2 / RFU, WDSUB1 / Fold change vs veh, WDSUB1 / Fold change vs veh, HSP90B1 /// MIR3652 / RFU, ADSS / Fold change vs veh, ADSS / RFU, GK / Fold change vs veh, GK / RFU, ZNF148 / Fold change vs veh, ZNF148 / RFU, TAF9 / Fold change vs veh, TAF9 / RFU, SLC1A5 / Fold change vs veh, SLC1A5 / RFU, SLMO2 / Fold change vs veh, SLMO2 / RFU, ABCC4 / Fold change vs veh, ABCC4 / RFU, LOC101060439 /// RAP1B / Fold change vs veh, LOC101060439 /// RAP1B / RFU, RFX7 / Fold change vs veh, RFX7 / RFU, GTPBP10 / Fold change vs veh, GTPBP10 / RFU, CNEP1R1 / Fold change vs veh, CNEP1R1 / RFU, BIVM-ERCC5 /// ERCC5 / Fold change vs veh, BIVM-ERCC5 /// ERCC5 / RFU, ILF3 / Fold change vs veh, ILF3 / RFU 11762660_at / Fold change /veh 11762660_at / RFU VCAN (11757783_s_at) / Fold change /veh VCAN (11757783_s_at) / RFU DDX43 (11728927_at) / Fold change /veh DDX43 (11728927_at) / RFU KRT8 (11758188_x_at) / Fold change /veh KRT8 (11758188_x_at) / RFU NKD1 (11759106_at) / Fold change /veh NKD1 (11759106_at) / RFU SRD5A1 (11742802_a_at) / Fold change /veh SRD5A1 (11742802_a_at) / RFU TPSAB1 /// TPSB2 (11721975_s_at) / Fold change /veh TPSAB1 /// TPSB2 (11721975_s_at) / RFU GSTM3 (11746129_a_at) / Fold change /veh GSTM3 (11746129_a_at) / RFU IL23R (11737362_x_at) / Fold change /veh IL23R (11737362_x_at) / RFU TMEM51 (11727254_a_at) / Fold change /veh TMEM51 (11727254_a_at) / RFU PIWIL2 (11732686_x_at) / Fold change /veh PIWIL2 (11732686_x_at) / RFU ORM1 (11744905_x_at) / Fold change /veh ORM1 (11744905_x_at) / RFU CCDC152 (11743942_at) / Fold change /veh CCDC152 (11743942_at) / RFU ECM1 (11717891_a_at) / Fold change /veh ECM1 (11717891_a_at) / RFU IL23R (11748794_a_at) / Fold change /veh IL23R (11748794_a_at) / RFU TNFAIP8L3 (11732012_x_at) / Fold change /veh TNFAIP8L3 (11732012_x_at) / RFU MBOAT4 (11741988_at) / Fold change /veh MBOAT4 (11741988_at) / RFU 11764193_at / Fold change /veh 11764193_at / RFU TMEM53 (11763286_at) / Fold change /veh TMEM53 (11763286_at) / RFU MAGEB2 (11727129_at) / Fold change /veh MAGEB2 (11727129_at) / RFU TMEM200A (11744735_a_at) / Fold change /veh TMEM200A (11744735_a_at) / RFU CCDC152 (11751479_a_at) / Fold change /veh CCDC152 (11751479_a_at) / RFU FAM211A (11726209_a_at) / Fold change /veh FAM211A (11726209_a_at) / RFU RGS16 (11746705_a_at) / Fold change /veh RGS16 (11746705_a_at) / RFU VCAN (11755009_s_at) / Fold change /veh VCAN (11755009_s_at) / RFU RHOB (11743442_s_at) / Fold change /veh RHOB (11743442_s_at) / RFU RGS16 (11720943_a_at) / Fold change /veh RGS16 (11720943_a_at) / RFU RGS16 (11720944_at) / Fold change /veh RGS16 (11720944_at) / RFU, VPS4B / Fold change vs veh, VPS4B / RFU, CREB1 / Fold change vs veh, CREB1 / RFU, DNAJC13 / Fold change vs veh, DNAJC13 / RFU, GNAQ / Fold change vs veh, GNAQ / RFU, CDK5R1 / Fold change vs veh, CDK5R1 / RFU, ZRANB3 / Fold change vs veh, ZRANB3 / RFU, CUL4A / Fold change vs veh, CUL4A / RFU, CCNY / Fold change vs veh, CCNY / RFU, UFL1 / Fold change vs veh, UFL1 / RFU, COG3 / Fold change vs veh, COG3 / RFU, DIAPH2 / Fold change vs veh, DIAPH2 / RFU, SKA2 / Fold change vs veh, SKA2 / RFU, AFF3 / Fold change vs veh, AFF3 / RFU, LMF1 / Fold change vs veh, LMF1 / RFU, IPO11 / Fold change vs veh, IPO11 / RFU, DFFB / Fold change vs veh, DFFB / RFU, FOXP1 / Fold change vs veh, FOXP1 / RFU, CARD8 / Fold change vs veh, CARD8 / RFU, STRN3 / Fold change vs veh, STRN3 / RFU, ADK / Fold change vs veh, ADK / RFU, RASSF2 / Fold change vs veh, RASSF2 / RFU, WIPF1 / Fold change vs veh, WIPF1 / RFU, LARP1B / Fold change vs veh, LARP1B / RFU, RASA1 / Fold change vs veh, RASA1 / RFU, RB1 / Fold change vs veh, RB1 / RFU, PPFIA1 / Fold change vs veh, PPFIA1 / RFU, MAT2A / Fold change vs veh, MAT2A / RFU, CCT5 / Fold change vs veh, CCT5 / RFU, WDR92 / Fold change vs veh, WDR92 / RFU, CUX1 / Fold change vs veh, CUX1 / RFU, TTC7A / Fold change vs veh, TTC7A / RFU, TMEM135 / Fold change vs veh, TMEM135 / RFU, DEPTOR / Fold change vs veh, DEPTOR / RFU, CPM / Fold change vs veh, CPM / RFU, DNAJB6 / Fold change vs veh, DNAJB6 / RFU, CACNA2D3 / Fold change vs veh, CACNA2D3 / RFU, DTX4 / Fold change vs veh, DTX4 / RFU, TFCP2 / Fold change vs veh, TFCP2 / RFU, GMCL1 /// GMCL1P1 / Fold change vs veh, GMCL1 /// GMCL1P1 / RFU, AEBP2 / Fold change vs veh, AEBP2 / RFU, SNHG1 /// SNORD22 /// SNORD25 /// SNORD26 /// SNORD27 /// SNORD28 /// SNORD29 /// SNORD31 / Fold change vs veh, SNHG1 /// SNORD22 /// SNORD25 /// SNORD26 /// SNORD27 /// SNORD28 /// SNORD29 /// SNORD31 / Fold change (Aza/veh), C12orf56 (ProbeSet 11735607_a_at) / Fold change (ACY-1035/veh), C12orf56 (ProbeSet 11735607_a_at) / Fold change (Aza/veh), FGFR1OP (ProbeSet 11751329_s_at) / Fold change (ACY-1035/veh), FGFR1OP (ProbeSet 11751329_s_at) / Fold change (Aza/veh), VPS36 (ProbeSet 11739960_a_at) / Fold change (ACY-1035/veh), VPS36 (ProbeSet 11739960_a_at) / RFU SYPL1 (11715823_x_at) / Fold change /veh SYPL1 (11715823_x_at) / RFU IGFBP7 (11715501_s_at) / Fold change /veh IGFBP7 (11715501_s_at) / RFU REEP3 (11722064_at) / Fold change /veh REEP3 (11722064_at) / RFU IGLL1 (11728026_x_at) / Fold change /veh IGLL1 (11728026_x_at): dose or concentration left out as unconfirmed
Settings: MV-4-11 cells, 48 hours

Q: With `Nc1ncn([C@@H]2O[C@H](CO)[C@@H](O)[C@H]2O)c(=O)n1` [azacitidine] as the molecule, how does the “Fold change /veh VCAN (11748164_a_at)” value read?
A: Its value is 1.17.
